The values below are quoted from earlier work in patent US20260263382A1, “TRANSDERMAL PATCH COMPRISING RASAGILINE MESYLATE AND PREPARATION METHOD THEREFOR” (priority 2023, published 2026).

Each structure is given as a SMILES string. Structures can show the parent of a compound that is named as a salt. Where two headings read alike, the source gives them in different places.

The conditions of data set [1]: carried in polyacrylate or silicone pressure-sensitive adhesives or polyvinyl alcohol, free base under weakly alkaline conditions.
For data set [2] the following is noted: oral preparations.
For data set [3] the following is noted: oral administration at 20 mg/d for 2 weeks.

Regarding `C#CCN[C@@H]1CCc2ccccc21` [rasagiline mesylate], in data set [1], the Main drug content result is recorded as “no change”.
Turning to `C#CCN[C@@H]1CCc2ccccc21` [Rasagiline], in data set [2], the Bioavailability is listed as 36%. In addition, in data set [3], the Adverse reaction result is “no serious adverse reaction”. In data set [1] (listed as rasagiline free base), the Main drug content result was “declines rapidly, even with complete degradation”.
